Test results published in ChEMBL document CHEMBL4507310, “Data for DCP probe A-1211212” (2021).

Assays:
[1] = biological target: Serine/threonine-protein kinase PAK 3 (Homo sapiens) (UniProt O75914); settings: Compound concentration 1000.0 nM
[2] = biological target: Serine/threonine-protein kinase NIM1 (Homo sapiens) (UniProt Q8IY84); settings: Compound concentration 1000.0 nM
[3] = biological target: LIM domain kinase 1 (Homo sapiens) (UniProt P53667); settings: Compound concentration 1000.0 nM
LIM domain kinase 1 (Homo sapiens), sequence (P53667 whole entry, looked up, the tested form may be a part): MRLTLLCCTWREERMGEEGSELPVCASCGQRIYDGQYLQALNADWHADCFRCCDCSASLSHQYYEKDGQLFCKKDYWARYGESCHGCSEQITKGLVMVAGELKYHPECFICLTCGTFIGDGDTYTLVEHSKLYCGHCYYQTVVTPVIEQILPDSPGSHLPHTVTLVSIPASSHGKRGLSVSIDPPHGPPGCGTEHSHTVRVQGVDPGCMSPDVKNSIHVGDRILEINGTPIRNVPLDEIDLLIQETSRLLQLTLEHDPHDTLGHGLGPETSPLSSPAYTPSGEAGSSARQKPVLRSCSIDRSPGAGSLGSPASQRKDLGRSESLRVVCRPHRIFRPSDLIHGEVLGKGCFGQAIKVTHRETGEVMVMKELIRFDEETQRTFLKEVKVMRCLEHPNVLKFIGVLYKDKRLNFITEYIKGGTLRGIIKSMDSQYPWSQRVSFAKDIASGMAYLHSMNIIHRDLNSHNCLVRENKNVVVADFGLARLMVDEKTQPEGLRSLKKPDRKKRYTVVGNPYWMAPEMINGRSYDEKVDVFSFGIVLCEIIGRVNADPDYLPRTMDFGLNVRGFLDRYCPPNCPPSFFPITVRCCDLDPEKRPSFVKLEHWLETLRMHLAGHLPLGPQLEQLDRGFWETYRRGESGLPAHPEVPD

[4] = biological target: STE20-like serine/threonine-protein kinase (Homo sapiens) (UniProt Q9H2G2); settings: Compound concentration 1000.0 nM
[5] = biological target: Serine/threonine-protein kinase RIO1 (Homo sapiens) (UniProt Q9BRS2); settings: Compound concentration 1000.0 nM
[6] = biological target: Serine/threonine-protein kinase 25 (Homo sapiens) (UniProt O00506); settings: Compound concentration 1000.0 nM
[7] = biological target: Phosphorylase b kinase regulatory subunit alpha, liver isoform (Homo sapiens) (UniProt P46019); settings: Compound concentration 1000.0 nM
[8] = biological target: Mitogen-activated protein kinase 10 (Homo sapiens) (UniProt P53779); settings: Compound concentration 1000.0 nM
[9] = biological target: Ephrin type-A receptor 4 (Homo sapiens) (UniProt P54764); settings: Compound concentration 1000.0 nM
[10] = biological target: Serine/threonine-protein kinase PLK1 (Homo sapiens) (UniProt P53350); settings: Compound concentration 1000.0 nM
[11] = biological target: Delta-type opioid receptor (Homo sapiens) (UniProt P41143); assay: delta (DOP) (h) Eurofins-Cerep binding assay; set-up: ligand concentration 0.5 nM; settings: filed as agonist, Compound concentration 10.0 uM
Delta-type opioid receptor (Homo sapiens), sequence (P41143 whole entry): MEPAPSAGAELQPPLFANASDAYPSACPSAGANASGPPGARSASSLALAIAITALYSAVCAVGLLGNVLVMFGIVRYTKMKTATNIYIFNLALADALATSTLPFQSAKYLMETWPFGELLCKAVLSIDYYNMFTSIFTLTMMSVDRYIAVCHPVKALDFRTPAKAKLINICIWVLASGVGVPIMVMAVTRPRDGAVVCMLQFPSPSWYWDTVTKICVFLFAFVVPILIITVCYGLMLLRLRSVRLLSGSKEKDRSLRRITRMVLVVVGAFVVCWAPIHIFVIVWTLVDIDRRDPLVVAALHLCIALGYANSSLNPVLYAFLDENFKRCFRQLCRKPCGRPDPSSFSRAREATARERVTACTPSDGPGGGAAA

[12] = biological target: Maternal embryonic leucine zipper kinase (Homo sapiens) (UniProt Q14680); settings: Compound concentration 1000.0 nM
[13] = biological target: Receptor tyrosine-protein kinase erbB-2 (Homo sapiens) (UniProt P04626); settings: Compound concentration 1000.0 nM
Receptor tyrosine-protein kinase erbB-2 (Homo sapiens), sequence (P04626 whole entry): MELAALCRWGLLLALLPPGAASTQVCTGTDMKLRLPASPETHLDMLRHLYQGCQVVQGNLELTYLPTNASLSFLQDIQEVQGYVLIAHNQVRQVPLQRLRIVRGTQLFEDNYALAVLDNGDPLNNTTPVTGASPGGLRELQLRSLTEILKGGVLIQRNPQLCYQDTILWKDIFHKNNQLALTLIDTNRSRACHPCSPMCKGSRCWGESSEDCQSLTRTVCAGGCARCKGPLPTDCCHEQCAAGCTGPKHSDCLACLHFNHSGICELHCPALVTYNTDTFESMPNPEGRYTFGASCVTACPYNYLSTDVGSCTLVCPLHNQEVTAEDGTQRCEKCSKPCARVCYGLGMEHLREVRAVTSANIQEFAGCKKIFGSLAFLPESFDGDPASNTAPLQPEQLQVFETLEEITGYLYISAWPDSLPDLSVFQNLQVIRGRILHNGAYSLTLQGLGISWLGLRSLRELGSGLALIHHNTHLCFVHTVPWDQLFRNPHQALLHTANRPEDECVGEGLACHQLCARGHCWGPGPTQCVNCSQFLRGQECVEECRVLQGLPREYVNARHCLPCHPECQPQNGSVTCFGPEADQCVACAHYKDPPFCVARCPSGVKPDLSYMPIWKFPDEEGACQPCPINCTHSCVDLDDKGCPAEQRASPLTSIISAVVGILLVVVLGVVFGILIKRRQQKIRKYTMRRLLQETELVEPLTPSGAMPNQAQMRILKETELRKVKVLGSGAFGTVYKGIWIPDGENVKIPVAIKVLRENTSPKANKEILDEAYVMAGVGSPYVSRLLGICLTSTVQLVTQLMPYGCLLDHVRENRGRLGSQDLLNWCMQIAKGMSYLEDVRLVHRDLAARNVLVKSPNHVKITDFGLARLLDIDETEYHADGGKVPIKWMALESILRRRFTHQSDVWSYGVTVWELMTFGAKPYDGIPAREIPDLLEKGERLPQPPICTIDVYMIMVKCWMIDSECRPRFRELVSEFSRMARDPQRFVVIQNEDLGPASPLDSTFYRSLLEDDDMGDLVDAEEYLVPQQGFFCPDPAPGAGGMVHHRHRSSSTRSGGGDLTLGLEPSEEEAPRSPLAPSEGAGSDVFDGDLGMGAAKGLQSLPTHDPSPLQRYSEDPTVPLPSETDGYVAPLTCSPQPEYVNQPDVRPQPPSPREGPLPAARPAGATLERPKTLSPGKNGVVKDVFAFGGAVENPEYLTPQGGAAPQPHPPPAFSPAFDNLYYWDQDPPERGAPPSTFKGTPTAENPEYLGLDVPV

[14] = biological target: T1, Muscarinic acetylcholine receptor M5 (Homo sapiens) (UniProt P08912); assay: M5 (h) Eurofins-Cerep binding assay; set-up: ligand concentration 0.3 nM; settings: filed as antagonist, Compound concentration 10.0 uM
T1 sequence (whole entry): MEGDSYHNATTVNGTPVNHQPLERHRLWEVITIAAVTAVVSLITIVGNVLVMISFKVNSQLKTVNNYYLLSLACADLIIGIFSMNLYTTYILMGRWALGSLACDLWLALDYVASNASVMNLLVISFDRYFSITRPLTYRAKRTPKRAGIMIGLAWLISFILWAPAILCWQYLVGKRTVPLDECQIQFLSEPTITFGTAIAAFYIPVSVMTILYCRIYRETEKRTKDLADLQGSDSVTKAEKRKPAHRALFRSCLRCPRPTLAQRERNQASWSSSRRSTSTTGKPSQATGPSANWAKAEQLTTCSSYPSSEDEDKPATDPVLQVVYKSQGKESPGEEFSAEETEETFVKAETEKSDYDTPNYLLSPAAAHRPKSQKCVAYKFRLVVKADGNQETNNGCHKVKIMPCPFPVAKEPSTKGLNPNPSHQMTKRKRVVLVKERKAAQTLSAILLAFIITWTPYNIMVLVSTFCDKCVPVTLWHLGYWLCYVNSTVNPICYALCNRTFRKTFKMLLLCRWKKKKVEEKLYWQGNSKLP

[15] = biological target: Hormonally up-regulated neu tumor-associated kinase (Homo sapiens) (UniProt P57058); settings: Compound concentration 1000.0 nM
Hormonally up-regulated neu tumor-associated kinase (Homo sapiens), sequence (P57058 whole entry): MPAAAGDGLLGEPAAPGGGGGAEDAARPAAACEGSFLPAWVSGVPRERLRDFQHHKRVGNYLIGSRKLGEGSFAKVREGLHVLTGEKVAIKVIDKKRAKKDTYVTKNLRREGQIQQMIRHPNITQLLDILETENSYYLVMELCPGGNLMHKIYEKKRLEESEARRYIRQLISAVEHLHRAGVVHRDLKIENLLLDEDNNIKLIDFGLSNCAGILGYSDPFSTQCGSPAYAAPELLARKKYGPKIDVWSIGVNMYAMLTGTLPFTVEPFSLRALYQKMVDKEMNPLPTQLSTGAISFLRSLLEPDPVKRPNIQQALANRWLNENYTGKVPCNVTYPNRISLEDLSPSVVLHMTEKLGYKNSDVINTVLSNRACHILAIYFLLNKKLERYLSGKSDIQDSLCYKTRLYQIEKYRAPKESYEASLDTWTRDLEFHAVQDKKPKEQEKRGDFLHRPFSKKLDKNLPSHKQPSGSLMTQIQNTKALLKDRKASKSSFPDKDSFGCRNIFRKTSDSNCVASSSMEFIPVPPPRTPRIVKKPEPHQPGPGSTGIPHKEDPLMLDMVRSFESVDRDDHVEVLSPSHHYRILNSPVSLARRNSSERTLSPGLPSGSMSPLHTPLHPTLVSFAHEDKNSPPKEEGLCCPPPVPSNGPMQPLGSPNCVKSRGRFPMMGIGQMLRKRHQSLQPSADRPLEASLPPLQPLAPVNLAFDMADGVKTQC

[16] = biological target: Mitogen-activated protein kinase kinase kinase 9 (Homo sapiens) (UniProt P80192); settings: Compound concentration 1000.0 nM
[17] = biological target: Dual specificity mitogen-activated protein kinase kinase 3 (Homo sapiens) (UniProt P46734); settings: Compound concentration 1000.0 nM
[18] = system: Leucine-rich repeat serine/threonine-protein kinase 2 (Homo sapiens), Q5S007 [G2019S]; settings: Compound concentration 1000.0 nM
[19] = biological target: Mitogen-activated protein kinase 14 (Homo sapiens) (UniProt Q16539); settings: Compound concentration 1000.0 nM
[20] = biological target: Mitogen-activated protein kinase kinase kinase 6 (Homo sapiens) (UniProt O95382); settings: Compound concentration 1000.0 nM
[21] = biological target: Mitogen-activated protein kinase kinase kinase 4 (Homo sapiens) (UniProt Q9Y6R4); settings: Compound concentration 1000.0 nM
[22] = biological target: Serine/threonine-protein kinase PLK3 (Homo sapiens) (UniProt Q9H4B4); settings: Compound concentration 1000.0 nM
[23] = biological target: Ribosomal protein S6 kinase beta-1 (Homo sapiens) (UniProt P23443); settings: Compound concentration 1000.0 nM
Ribosomal protein S6 kinase beta-1 (Homo sapiens), sequence (P23443 whole entry, looked up): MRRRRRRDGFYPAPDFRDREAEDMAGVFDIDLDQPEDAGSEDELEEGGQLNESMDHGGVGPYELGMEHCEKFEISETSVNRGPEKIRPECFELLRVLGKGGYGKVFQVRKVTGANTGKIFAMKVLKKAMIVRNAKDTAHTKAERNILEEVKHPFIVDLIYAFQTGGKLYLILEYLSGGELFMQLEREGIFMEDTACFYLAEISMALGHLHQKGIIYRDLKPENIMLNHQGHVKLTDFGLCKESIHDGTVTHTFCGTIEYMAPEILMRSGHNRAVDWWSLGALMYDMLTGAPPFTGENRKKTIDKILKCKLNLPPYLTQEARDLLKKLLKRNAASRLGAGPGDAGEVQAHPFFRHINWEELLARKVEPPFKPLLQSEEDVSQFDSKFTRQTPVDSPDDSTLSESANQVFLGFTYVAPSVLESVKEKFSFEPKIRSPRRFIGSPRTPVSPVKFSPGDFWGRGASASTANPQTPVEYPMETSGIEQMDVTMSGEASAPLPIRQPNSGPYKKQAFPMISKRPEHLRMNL

[24] = biological target: Cyclin-dependent kinase 4 (Homo sapiens) (UniProt P11802); settings: Compound concentration 1000.0 nM
Cyclin-dependent kinase 4 (Homo sapiens), sequence (P11802 whole entry): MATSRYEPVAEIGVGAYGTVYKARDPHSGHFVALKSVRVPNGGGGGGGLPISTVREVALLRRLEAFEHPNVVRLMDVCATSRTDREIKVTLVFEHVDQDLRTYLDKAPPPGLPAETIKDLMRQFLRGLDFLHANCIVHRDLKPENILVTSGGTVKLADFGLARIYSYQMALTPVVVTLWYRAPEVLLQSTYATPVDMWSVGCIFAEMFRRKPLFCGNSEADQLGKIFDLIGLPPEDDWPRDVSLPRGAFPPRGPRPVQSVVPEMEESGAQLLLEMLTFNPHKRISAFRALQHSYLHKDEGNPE

[25] = biological target: Mitogen-activated protein kinase kinase kinase 10 (Homo sapiens) (UniProt Q02779); settings: Compound concentration 1000.0 nM
[26] = biological target: Mast/stem cell growth factor receptor Kit (Homo sapiens) (UniProt P10721); settings: Compound concentration 1000.0 nM
[27] = biological target: T2, Muscarinic acetylcholine receptor M1 (Homo sapiens) (UniProt P11229); assay: M1 (h) Eurofins-Cerep binding assay; set-up: ligand concentration 2 nM; settings: filed as antagonist, Compound concentration 10.0 uM
T2 sequence (whole entry): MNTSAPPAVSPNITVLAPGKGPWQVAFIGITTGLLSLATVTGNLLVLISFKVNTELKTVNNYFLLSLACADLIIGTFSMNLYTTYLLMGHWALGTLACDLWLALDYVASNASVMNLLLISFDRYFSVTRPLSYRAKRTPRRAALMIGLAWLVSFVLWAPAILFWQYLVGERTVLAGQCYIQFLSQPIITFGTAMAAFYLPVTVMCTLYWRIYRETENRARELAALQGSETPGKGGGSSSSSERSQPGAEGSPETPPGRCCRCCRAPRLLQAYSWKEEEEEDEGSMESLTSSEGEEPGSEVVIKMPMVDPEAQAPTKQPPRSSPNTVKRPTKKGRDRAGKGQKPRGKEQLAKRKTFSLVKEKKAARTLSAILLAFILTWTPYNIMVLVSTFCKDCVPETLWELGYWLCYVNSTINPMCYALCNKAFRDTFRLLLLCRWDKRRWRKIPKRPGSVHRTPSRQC

[28] = biological target: Serine/threonine-protein kinase STK11 (Homo sapiens) (UniProt Q15831); settings: Compound concentration 1000.0 nM
[29] = biological target: Phosphorylase b kinase gamma catalytic chain, skeletal muscle/heart isoform (Homo sapiens) (UniProt Q16816); settings: Compound concentration 1000.0 nM
[30] = biological target: Histamine H2 receptor (Homo sapiens) (UniProt P25021); assay: H2 (h) Eurofins-Cerep binding assay; set-up: ligand concentration 0.075 nM; settings: filed as antagonist, Compound concentration 10.0 uM

Serine/threonine-protein kinase NIM1 (Homo sapiens), sequence (Q8IY84 whole entry, the tested form may be a part): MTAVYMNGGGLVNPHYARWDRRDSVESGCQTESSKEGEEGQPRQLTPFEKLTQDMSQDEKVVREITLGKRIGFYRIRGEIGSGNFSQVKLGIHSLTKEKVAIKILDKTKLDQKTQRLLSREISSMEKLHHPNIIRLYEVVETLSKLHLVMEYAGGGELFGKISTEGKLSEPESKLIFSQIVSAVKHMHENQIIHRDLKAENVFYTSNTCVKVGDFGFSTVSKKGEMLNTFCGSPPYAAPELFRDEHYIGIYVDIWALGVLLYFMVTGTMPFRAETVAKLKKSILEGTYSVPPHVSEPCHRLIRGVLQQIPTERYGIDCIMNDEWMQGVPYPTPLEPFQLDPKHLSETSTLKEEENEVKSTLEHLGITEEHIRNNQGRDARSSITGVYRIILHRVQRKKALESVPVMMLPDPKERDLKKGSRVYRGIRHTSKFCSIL
Serine/threonine-protein kinase PAK 3 (Homo sapiens), sequence (O75914 whole entry, looked up): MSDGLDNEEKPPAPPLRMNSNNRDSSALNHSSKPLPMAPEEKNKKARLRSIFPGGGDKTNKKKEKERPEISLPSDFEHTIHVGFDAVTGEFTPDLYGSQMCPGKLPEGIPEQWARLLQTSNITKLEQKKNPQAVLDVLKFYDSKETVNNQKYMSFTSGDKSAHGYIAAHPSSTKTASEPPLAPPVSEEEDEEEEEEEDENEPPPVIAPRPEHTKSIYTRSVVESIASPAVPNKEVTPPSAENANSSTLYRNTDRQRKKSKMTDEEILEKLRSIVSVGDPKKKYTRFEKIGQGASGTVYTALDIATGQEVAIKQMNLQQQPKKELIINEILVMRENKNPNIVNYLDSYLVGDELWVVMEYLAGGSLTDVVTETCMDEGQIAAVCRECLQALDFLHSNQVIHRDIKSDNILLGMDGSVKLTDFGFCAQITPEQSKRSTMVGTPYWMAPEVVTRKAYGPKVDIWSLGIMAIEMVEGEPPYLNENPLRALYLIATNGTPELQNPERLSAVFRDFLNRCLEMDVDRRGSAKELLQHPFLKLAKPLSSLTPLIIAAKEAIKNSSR

Row | SMILES | residual activity [1] | residual activity [2] | residual activity [3] | residual activity [4] | residual activity [5] | residual activity [6] | residual activity [7] | residual activity [8] | residual activity [9] | residual activity [10] | % Inhibition of Control Specific Binding (Mean n=2) [11] | residual activity [12] | residual activity [13] | % Inhibition of Control Specific Binding (Mean n=2) [14] | residual activity [15] | residual activity [16] | residual activity [17] | residual activity [18] | residual activity [19] | residual activity [20] | further results
1 | O=C(NS(=O)(=O)c1ccc(NCC2CCOCC2)c([N+](=O)[O-])c1)c1ccc(N2CCN(Cc3ccc(C(F)(F)F)cc3-c3ccc(Cl)cc3)CC2)cc1Oc1cnc2[nH]ccc2c1 [A-1210227] | 77% | 94% | 85% | 100% | 100% | 98% | 83% | 82% | 100% | 90% | 7.4% | 73% | 100% | -1.6% | 100% | 100% | 80% | 88% | 97% | 80% | residual activity [21]: 94%; residual activity [22]: 100%; residual activity [23]: 81%; residual activity [24]: 100%; residual activity [25]: 95%; residual activity [26]: 100%; % Inhibition of Control Specific Binding (Mean n=2) [27]: -0.2%; residual activity [28]: 100%; residual activity [29]: 100%; % Inhibition of Control Specific Binding (Mean n=2) [30]: -948%
2 | CO[C@H]1CC[C@H](CNc2ccc(S(=O)(=O)NC(=O)c3ccc(N4CCN(CC5=C(c6ccc(Cl)cc6)CC(C)(C)CC5)CC4)cc3Oc3cnc4[nH]ccc4c3)cc2[N+](=O)[O-])CC1 [A-1211212] | 64% | 90% | 89% | 67% | 100% | 83% | 74% | 77% | 88% | 83% | 2.8% | 67% | 54% | 8.6% | 100% | 84% | 92% | 100% | 83% | 93% | residual activity [21]: 90%; residual activity [22]: 100%; residual activity [23]: 86%; residual activity [24]: 100%; residual activity [25]: 89%; residual activity [26]: 100%; % Inhibition of Control Specific Binding (Mean n=2) [27]: -7.2%; residual activity [28]: 59%; residual activity [29]: 100%; % Inhibition of Control Specific Binding (Mean n=2) [30]: -22%
